Measurements from patent publication US20230027929A1, “MrgprX2 Antagonists and Uses Thereof” (Dermira, Inc., priority 2019, published 2023).

molecular target: T1, hMrgpMRGPRX2 (Homo sapiens, UniProt Q96LB1); test: FLIPR intracellular calcium mobilization, antagonist activity in recombinant hMrgpMRGPRX2 expressing cells; assay type: cell-based; details: read-out: Human MrgprX2 Antagonist pIC50 (converted)
T1 construct: expressed in transfected cells
T1 sequence (Q96LB1 1-330): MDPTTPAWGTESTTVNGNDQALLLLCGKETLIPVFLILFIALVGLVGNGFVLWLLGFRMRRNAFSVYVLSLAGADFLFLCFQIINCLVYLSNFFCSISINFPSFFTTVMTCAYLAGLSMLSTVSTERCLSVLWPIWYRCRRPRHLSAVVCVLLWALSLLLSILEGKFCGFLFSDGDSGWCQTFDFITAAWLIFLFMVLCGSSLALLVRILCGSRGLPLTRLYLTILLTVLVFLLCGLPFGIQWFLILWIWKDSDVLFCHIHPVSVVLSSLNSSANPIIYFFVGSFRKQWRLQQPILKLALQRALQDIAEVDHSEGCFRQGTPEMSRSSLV
Source text: Potent and selective hMrgpMRGPRX2 compounds have been generated from compounds identified during a high throughput screening (HTS) campaign and followed up with cycles of structure activity based medicinal chemistry efforts. These compounds were characterized in recombinant hMrgpMRGPRX2 expressing cells for their antagonist activity and the potency was confirmed in the human mast cell line LAD-2, where the target is endogenously expressed. The assays used to determine potencies are functional read-out looking at intracellular calcium mobilization using the FLIPR™ technology. In these FLIPR assays, we test the identified compounds using recombinant cellular systems expressing mouse MrgprB2, mouse MrgprA1, gerbil MrgpMRGPRX2 orthologue, Chinese hamster MrgpMRGPRX2 orthologue and cynomolgus monkey MrgpMRGPRX2 orthologue, respectively for orthologue activity.

| SMILES | IC50 [nM] |
| --- | --- |
| CC(C)C(=O)Nc1ccc(N2CCCC2)cn1 [Compound E081, 2-methyl-N-(5-pyrrolidin-1-yl-2-pyridyl)propanamide] | 3980 |
| CC1(C)C(C(=O)Nc2ccc(OCCO)cn2)C1(C)C [Compound E082, N[5-(2-hydroxyethoxy)pyridin-2-yl]-2,2,3,3-tetramethylcyclopropane-l-carboxamide] | 4370 |
| CC1(C)C(C(=O)Nc2ccc(OC3COC3)cn2)C1(C)C [Compound E083] | 1070 |
| CC(C)C(=O)Nc1ccc(OC2CCCC2)cn1 [Compound E084] | 1580 |
| CC1(C)C(C(=O)Nc2ccc(OC3CCOCC3)cn2)C1(C)C [Compound E085] | 1000 |
| CC1(C)C(C(=O)Nc2ccc(OCc3cncc(F)c3)cn2)C1(C)C [Compound E086] | 204 |
| CC1(C)C(C(=O)Nc2ccc(-n3cc(F)cn3)cn2)C1(C)C [Compound E087] | 43.7 |
| CC1(C)C(C(=O)Nc2ccc(-n3ccc(C#N)n3)cn2)C1(C)C [Compound E088] | 28.2 |
| CC1(C)C(C(=O)Nc2ccc(-n3nccn3)cn2)C1(C)C [Compound E089] | 15.1 |
| CC1(C)C(C(=O)Nc2ccc(-n3ccnn3)cn2)C1(C)C [Compound E090] | 3390 |
| CC1(C)C(C(=O)Nc2ccc(-n3ccc(F)n3)cn2)C1(C)C [Compound E091] | 8.13 |
| CC1(C)C(C(=O)Nc2ccc(-n3cncn3)cn2)C1(C)C [Compound E092] | 8130 |
| CC1(C)C(C(=O)Nc2ccc(OCC(F)(F)F)cn2)C1(C)C [Compound E093, 2,2,3,3-tetramethyl-N-[5-(2,2,2-trifluoroethoxy)-2-pyridyl]cyclopropanecarboxamide] | 31.6 |
| CC(C)C(=O)Nc1ccc(Nc2ccccc2)cn1 [Compound E094, N-(5-anilino-2-pyridyl)-2-methyl-propanamide] | 3980 |
| CC(C)C(=O)Nc1ccc(N2CCc3ccccc32)cn1 [Compound E095, N-(5-indolin-1-yl-2-pyridyl)-2-methyl-propanamide] | 3980 |
| CC(C)C(=O)Nc1ccc(N(C)c2ccccc2)cn1 [Compound E096, 2-methyl-N-[5-(N-methylanilino)-2-pyridyl]propanamide] | 2510 |
| CC1(C)C(C(=O)Nc2ccc(N3CCCC3)cn2)C1(C)C [Compound E097] | 2.51 |
| CC1(C)CC1C(=O)Nc1ccc(N2CCCC2)cn1 (stereo not shown) [Compound E098] | 87.1 |
| CC1(C)C(C(=O)Nc2ccc(N3CCC(F)C3)cn2)C1(C)C (stereo not shown) [Compound E099] | 25.1 |
| CC1(C)C(C(=O)Nc2ccc(N3CCC(F)(F)C3)cn2)C1(C)C [Compound E100] | 34.7 |

| SMILES | IC50 [nM] |
| --- | --- |
| CC1(C)C(C(=O)Nc2ccc(Nc3cncc(F)c3)cn2)C1(C)C [Compound E101] | 912 |
| CCN(C[C@@H](O)C(F)(F)F)C(=O)Nc1ccc(Oc2ccc(F)c(F)c2)cn1 [Compound E102, 3-[5-(3,4-difluorophenoxy)-2-pyridyl]-1-ethyl-1-[(2R)-3,3,3-trifluoro-2-hydroxy-propyl]urea] | 10.7 |
| C[C@H](O)CN(C)C(=O)Nc1ccc(Oc2cccc(F)c2)cn1 [Compound E103] | 1580 |
| CC(C)N(C)C(=O)Nc1ccc(Oc2ccc(F)c(F)c2)cn1 [Compound E104] | 126 |
| O=C(Nc1ccc(Oc2ccc(F)c(F)c2)cn1)N1CCCC1 [Compound E105] | 7940 |
| CN(CC(F)(F)F)C(=O)Nc1ccc(Oc2ccc(F)c(F)c2)cn1 [Compound E106] | 316 |
| CC(C)NC(=O)Nc1ccc(Oc2ccc(F)c(F)c2)cn1 [Compound E107] | 6310 |
| CN(C(=O)Nc1ccc(Oc2ccc(F)c(F)c2)cn1)C1CC1 [Compound E108] | 631 |
| CCN(C[C@H](C)O)C(=O)Nc1ccc(Oc2ccc(F)c(F)c2)cn1 [Compound E109] | 363 |
| CCN(C[C@@H](O)C(F)(F)F)C(=O)Nc1ccc(Oc2cncc(F)c2)cn1 [Compound E110] | 5130 |
| CN(C[C@@H](O)C(F)(F)F)C(=O)Nc1ccc(Oc2ccc(F)c(F)c2)cn1 [Compound E111] | 57.5 |
| CCN(CC(C)(C)O)C(=O)Nc1ccc(Oc2ccc(F)c(F)c2)cn1 [Compound E112] | 155 |
| CN(C[C@H](O)C(F)(F)F)C(=O)Nc1ccc(Oc2ccc(F)c(F)c2)cn1 [Compound E113] | 575 |
| CC(O)CN(CC(F)(F)F)C(=O)Nc1ccc(Oc2ccc(F)c(F)c2)cn1 (stereo not shown) [Compound E114] | 1200 |
| CCN(C[C@@H](O)C(F)(F)F)C(=O)Nc1ccc(Oc2ccc(C#N)cc2)cn1 [Compound E115] | 8910 |
| CCN(C[C@@H](O)C(F)(F)F)C(=O)Nc1ccc(Oc2cc(F)cc(C#N)c2)cn1 [Compound E116] | 1350 |
| CCN(C[C@@H](O)C(F)(F)F)C(=O)Nc1ccc(Oc2cc(F)cc(F)c2)cn1 [Compound E117] | 2.04 |
| CCN(C[C@@H](O)C(F)(F)F)C(=O)Nc1ccc(Oc2ccc(F)cc2)cn1 [Compound E118] | 50.1 |
| CCN(C[C@@H](O)C(F)(F)F)C(=O)Nc1ccc(Oc2cccc(F)c2)cn1 [Compound E119] | 12.3 |
| CCN(C[C@@H](O)C(F)(F)F)C(=O)Nc1ccc(Oc2cccc(F)c2F)cn1 [Compound E120] | 3.72 |

| SMILES | IC50 [nM] |
| --- | --- |
| Cc1nc(NC(=O)N(C)C[C@@H](O)C(F)(F)F)ccc1Oc1ccc(F)c(F)c1 [Compound E121] | 708 |
| CCN(C[C@@H](O)C(F)(F)F)C(=O)Nc1ccc(Oc2ccccc2F)cn1 [Compound E122] | 3.8 |
| CCN(C[C@@H](O)C(F)(F)F)C(=O)Nc1ccc(Oc2cc(F)ccc2F)cn1 [Compound E123] | 3.39 |
| CC1(C)CN(C(=O)Nc2ccc(Oc3ccc(F)c(F)c3)cn2)C1 [Compound E124] | 3240 |
| CC1(C)CCN1C(=O)Nc1ccc(Oc2ccc(F)c(F)c2)cn1 [Compound E125] | 468 |
| CCN(C[C@@H](O)C(F)(F)F)C(=O)Nc1ccc(Oc2cc(C#N)ccc2F)cn1 [Compound E126] | 7760 |
| CCN(CC(O)C(F)(F)F)C(=O)Nc1ccc(Oc2cccc(F)c2)cn1 (stereo not shown) [Compound E127] | 15.8 |
| CCN(C[C@@H](O)C(F)(F)F)C(=O)Nc1ccc(Oc2cccc(F)c2C#N)cn1 [Compound E128] | 120 |
| CCN(C[C@@H](O)C(F)(F)F)C(=O)Nc1ccc(Oc2cc(F)ccc2C#N)cn1 [Compound E129] | 1950 |
| O=C(Nc1ccc(Oc2cc(F)cc(F)c2)cn1)N1CC[C@@H](CO)C1 [Compound E130] | 7080 |
| O=C(NCC(O)C(F)(F)F)Nc1ccc(Oc2cc(F)cc(F)c2)cn1 (stereo not shown) [Compound E131] | 1000 |
| O=C(Nc1ccc(Oc2cc(F)cc(F)c2)cn1)N1CCC[C@@H]1CO [Compound E132] | 575 |
| O=C(Nc1ccc(Oc2cc(F)cc(F)c2)cn1)N1CC[C@H](CO)C1 [Compound E133] | 6170 |
| CCN(C[C@@H](O)C(F)(F)F)C(=O)Nc1ccc(Oc2cccc(C#N)c2F)cn1 [Compound E134] | 468 |
| CCN(C[C@@H](O)C(F)(F)F)C(=O)Nc1ccc(Oc2c(F)cccc2F)cn1 [Compound E135] | 8.13 |
| CCN(C[C@@H](O)C(F)(F)F)C(=O)Nc1ccc(Oc2c(F)cccc2C#N)cn1 [Compound E136] | 158 |
| CCN(C[C@@H](O)C(F)(F)F)C(=O)Nc1ccc(Oc2ccc(F)cc2F)cn1 [Compound E137] | 2.09 |
| CCN(C[C@@H](O)C(F)(F)F)C(=O)Nc1ccc(OCc2cccc(F)c2)cn1 [Compound E138] | 871 |
